Reference: PubChem BioAssay AID1918994 (Molecular Pharmacology Branch, DTP, NCI, 2023)

System: 292921-168-R-J2-PDC complex spheroid growth
Assay: Anticancer human tumor 292921-168-R-J2-PDC patient-derived pancreatic carcinoma cell line growth inhibition [AhR]
Settings: for viability, T/C: stronger effect = lower value
Source text: Multicellular complex tumor spheroid response to aryl hydrocarbon receptor antagonists in combination with a variety of drugs and investigational agents in selected tumor cell lines
The current study was undertaken to assess response to aryl hydrocarbon receptor antagonists in combination with standard-of-care drugs and investigational agents in solid tumor complex spheroid models. Complex spheroids include a stromal component modeled by human endothelial cells (HUVEC) and fibroblasts modeled by human mesenchymal stem cells (MSCs). The concentration ranges selected for each drug and investigational agent were based upon clinically achievable concentrations if the clinical Cmax of the agent was known.
Compounds. The drugs and investigational agents: BAY 2416964 (NSC825713), GNF351 (NSC835774), CH-223191 (NSC835775), CPI-455 (NSC825282), aza-TdCyd (NSC777586), decitabine (NSC127716), belinostat (NSC758774), entinostat (NSC756642), pevonedistat (NSC761192), tazemetostat (NSC777109), talazoparib (NSC765396), olaparib (NSC753686), selinexor (NSC780203), nedisertib (M3814, NSC802822), bortezomib (NSC756655), venetoclax (NSC766270), doxorubicin (NSC123127), elimusertib (BAY189344, NSC800525), ceralasertib (AZD6738, NSC777638), TAK-243 (NSC785004), alisertib (NSC759677), etoposide (NSC141540), topotecan (NSC609699), eribulin (NSC707389), gemcitabine (NSC613327), carboplatin (NSC241240), cisplatin (NSC119875), and SN-38 (NSC673596) were obtained from the National Cancer Institute (NCI) Developmental Therapeutics Program Chemical Repository (32). The FDA-approved anticancer drug set is available from the Developmental Therapeutics Program at https://dtp.cancer.gov/organization/dscb/obtaining/available plates.htm. […] The stock solutions were prepared in dimethyl sulfoxide (DMSO, Sigma-Aldrich, St. Louis, MO, cat. D2650), except for the platinum compounds which were prepared in saline (Quality Biological, Gaithersburg, MD, cat. 114-055-101), at 800-fold the tested concentration and stored at -70 degrees C prior to their use. All drugs and investigational agents were tested over a range starting from a high concentration at or near the clinical Cmax and decreasing in half-log increments. If the clinical Cmax for an agent had not been determined, the highest concentration tested was 10 microM (Table 1).
Cell Culture. All cells were maintained in an incubator at 37 degrees C and 5% CO2 with 95% humidity. The PDC lines were cultured according to standard operating procedures established by the NCI PDMR (https://pdmr.cancer.gov). Briefly, all PDCs were thawed and cultured in Matrigel-coated flasks prepared with a working solution of 1X Ham's F-12 nutrient mix, without supplementation (Invitrogen, Waltham, MA, cat. 11765054), 100 U/mL penicillin-streptomycin (Invitrogen, cat. 15140122), and 2.5% Matrigel (Corning Inc., Corning, NY, cat. 354248) for the first three passages. All PDCs were cultured in complete DMEM/F-12 media containing advanced DMEM/F-12 (Invitrogen, cat. 12634028), 4.9% defined fetal bovine serum, heat inactivated (HyClone Laboratories Inc., Logan, UT, cat. SH30070.03HI), 389 ng/mL hydrocortisone (Sigma-Aldrich, cat. H4001), 9.7 ng/mL human EGF recombinant protein (Invitrogen, cat. PHG0313), 23.4 microg/mL adenine (Sigma-Aldrich, cat. A2786), 97.3 U/mL penicillin-streptomycin (Invitrogen, cat. 15140122), 1.9 mM L-glutamine (Invitrogen, cat. 25030081), and 9.7 microM Y-27632 dihydrochloride (Tocris Bioscience, Bristol, United Kingdom, cat. 1254). The PDCs were cultured in complete DMEM/F12 media without 10 microM Y-27632 dihydrochloride for at least two passages prior to the screen. The established cell lines NCI-H1341 and […] were cultured in DMEM/F-12, HEPES (Invitrogen, cat. 11330032), 5% defined fetal bovine serum (HyClone Laboratories Inc., cat. SH30070.03), ITS premix universal culture supplement [insulin (5 microg/mL), transferrin (5 microg/mL), and selenious acid (5 ng/mL)] […]

[1] = curve of first compound, second compound 0.1 µM
[2] = curve of first compound, second compound 0.316 µM
[3] = curve of first compound, second compound 1 µM
[4] = curve of first compound, second compound 3.16 µM
[5] = curve of first compound, second compound 10 µM
[6] = second compound 0.1 µM, first compound 0.0316 µM
[7] = second compound 0.1 µM, first compound 0.1 µM
[8] = second compound 0.1 µM, first compound 0.316 µM
[9] = second compound 0.1 µM, first compound 1 µM
[10] = second compound 0.1 µM, first compound 3.16 µM
[11] = second compound 0.1 µM, first compound 10 µM
[12] = second compound 0.316 µM, first compound 0.0316 µM
[13] = second compound 0.316 µM, first compound 0.1 µM
[14] = second compound 0.316 µM, first compound 0.316 µM
[15] = second compound 0.316 µM, first compound 1 µM
[16] = second compound 0.316 µM, first compound 3.16 µM
[17] = second compound 0.316 µM, first compound 10 µM
[18] = second compound 1 µM, first compound 0.0316 µM
[19] = second compound 1 µM, first compound 0.1 µM
[20] = second compound 1 µM, first compound 0.316 µM
[21] = second compound 1 µM, first compound 1 µM
[22] = second compound 1 µM, first compound 3.16 µM
[23] = second compound 1 µM, first compound 10 µM
[24] = second compound 3.16 µM, first compound 0.0316 µM
[25] = second compound 3.16 µM, first compound 0.1 µM
[26] = second compound 3.16 µM, first compound 0.316 µM
[27] = second compound 3.16 µM, first compound 1 µM
[28] = second compound 3.16 µM, first compound 3.16 µM
[29] = second compound 3.16 µM, first compound 10 µM
[30] = second compound 10 µM, first compound 0.0316 µM
[31] = second compound 10 µM, first compound 0.1 µM
[32] = second compound 10 µM, first compound 0.316 µM
[33] = second compound 10 µM, first compound 1 µM
[34] = second compound 10 µM, first compound 3.16 µM
[35] = second compound 10 µM, first compound 10 µM
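Further: spheroids exposed to compounds for seven days after three days of growth.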

IC50 [1] [nM] | IC50 [2] [nM] | IC50 [3] [nM] | IC50 [4] [nM] | IC50 [5] [nM] | SMILES | viability, T/C [6] [%] | viability, T/C [7] [%] | viability, T/C [8] [%] | viability, T/C [9] [%] | viability, T/C [12] [%] | viability, T/C [13] [%] | viability, T/C [14] [%] | viability, T/C [15] [%] | viability, T/C [18] [%] | viability, T/C [19] [%] | viability, T/C [20] [%] | viability, T/C [21] [%] | viability, T/C [24] [%] | viability, T/C [25] [%] | viability, T/C [26] [%] | other results
 |  |  |  |  | Cc1ccccc1N=Nc1ccc(NC(=O)c2ccnn2C)c(C)c1 |  |  |  |  |  |  |  |  |  |  |  |  |  |  |  | viability, T/C (compound 0.1 µM): 91.3% [middle of 19 runs]; viability, T/C (compound 0.316 µM): 85.6% [middle of 20 runs]; viability, T/C (compound 1 µM): 82.1% [middle of 20 runs]; viability, T/C (compound 10 µM): 62.7% [middle of 21 runs]; IC50 (compound alone, run of 06/14/2022): > 10000 nM
645 | 563 | 542 | 421 | 163 | COc1cc(C2c3cc4c(cc3C(OC3OC5COC(C)OC5C(O)C3O)C3COC(=O)C23)OCO4)cc(OC)c1O (stereo not given) + CC(CO)NC(=O)c1cc(-c2ccc(Cl)cc2)nn(-c2cnn(C)c2)c1=O | 95.7 | 92.4 | 67.9 | 38 | 89.3 | 85.5 | 65 | 33.6 | 98.8 | 90.9 | 61.7 | 34.4 | 85.1 | 75 | 56.3 | viability, T/C [10]: 22.6%; viability, T/C [11]: 13.7%; viability, T/C [16]: 24.4%; viability, T/C [17]: 13.7%; viability, T/C [22]: 24.6%; viability, T/C [23]: 13.7%; viability, T/C [27]: 31.3%; viability, T/C [28]: 22.4%; viability, T/C [29]: 11.8%; viability, T/C [30]: 60.9%; viability, T/C [31]: 60%; viability, T/C [32]: 38.8%; viability, T/C [33]: 27.4%; viability, T/C [34]: 19.6%; viability, T/C [35]: 11.4%
< 31.6 | < 31.6 | < 31.6 | < 31.6 | < 31.6 | COc1cccc2c1C(=O)c1c(O)c3c(c(O)c1C2=O)CC(O)(C(=O)CO)CC3OC1CC(N)C(O)C(C)O1 (stereo not given) + CC(CO)NC(=O)c1cc(-c2ccc(Cl)cc2)nn(-c2cnn(C)c2)c1=O | 32.5 | 22.5 | 7.11 | 1.19 | 31.8 | 21.6 | 8.73 | 1.26 | 31.9 | 26.1 | 8.6 | 1.22 | 29.6 | 22.4 | 5.98 | viability, T/C [10]: 3.72%; viability, T/C [11]: 4.17%; viability, T/C [16]: 2.17%; viability, T/C [17]: 4.63%; viability, T/C [22]: 2%; viability, T/C [23]: 4.64%; viability, T/C [27]: 1.4%; viability, T/C [28]: 2.71%; viability, T/C [29]: 3.71%; viability, T/C [30]: 25.2%; viability, T/C [31]: 19.9%; viability, T/C [32]: 4.23%; viability, T/C [33]: 1.07%; viability, T/C [34]: 2.43%; viability, T/C [35]: 5.08%
> 1000 | > 1000 | > 1000 | > 1000 | > 1000 | Nc1ncn(C2CC(O)C(CO)O2)c(=O)n1 (stereo not given) + CC(CO)NC(=O)c1cc(-c2ccc(Cl)cc2)nn(-c2cnn(C)c2)c1=O | 87.1 | 88.8 | 80.9 | 73.7 | 105 | 90.8 | 85.8 | 77.8 | 103 | 94.5 | 86.2 | 78.8 | 92.4 | 76.5 | 81.4 | viability, T/C (second compound 0.1 µM, first compound 0.00316 µM): 102%; viability, T/C (second compound 0.1 µM, first compound 0.01 µM): 93.3%; viability, T/C (second compound 0.316 µM, first compound 0.00316 µM): 101%; viability, T/C (second compound 0.316 µM, first compound 0.01 µM): 96.3%; viability, T/C (second compound 1 µM, first compound 0.00316 µM): 97.5%; viability, T/C (second compound 1 µM, first compound 0.01 µM): 104%; viability, T/C (second compound 3.16 µM, first compound 0.00316 µM): 94.7%; viability, T/C (second compound 3.16 µM, first compound 0.01 µM): 91%; viability, T/C [27]: 69.5%; viability, T/C (second compound 10 µM, first compound 0.00316 µM): 70.3%; viability, T/C (second compound 10 µM, first compound 0.01 µM): 72.8%; viability, T/C [30]: 71%; viability, T/C [31]: 73%; viability, T/C [32]: 63%; viability, T/C [33]: 62.5%
